Experimental data taken from paper PMC9888480, “Carboranyl-1,8-naphthalimide intercalators induce lysosomal membrane permeabilization and ferroptosis in cancer cell lines” (Journal of Enzyme Inhibition and Medicinal Chemistry, 2023).
Read-outs that look alike come from different tables or passages of the source.

Experiments:
[1] = tested on: HepG2; assay: In vitro cytotoxic activity, MTT assay; assay type: cell-based, human; settings: concentration required to inhibit cell growth by 50%
Description: The in vitro cytotoxic activity of the obtained carborane-1,8-naphthalimide conjugates was investigated by examining their cytotoxic effects using the MTT (3–(4,5-dimethylthiazol-2-yl)-2,5-diphenyltetrazolium bromide) dye assay[38]^,[39] against the human cancer cell line HepG2 established from hepatocellular carcinoma (for compounds 12–19 and 30–37) and against human lung fibroblasts (MRC-5) (for compounds 34–37). The IC50 values—the drug concentration (µM) required to inhibit cell growth by 50%—determined for the synthesised compounds are summarised in Table 2.
The cytotoxic properties of the synthesised compounds were evaluated using the human hepatocellular carcinoma cell line (HepG2) and human lung fibroblasts (MRC-5). The HepG2 and MRC-5 cell lines were purchased from American Type Culture Collection (ATCC, Manassas, VA, USA). The HepG2 cells were propagated in Eagle’s minimal essential medium (EMEM, ATCC, Manassas, VA, USA), supplemented with 10% inactivated foetal bovine serum (FBS, Life Technologies, Warsaw, Poland) and 100 units/ml penicillin G with […] streptomycin (Life Technologies, Warsaw, Poland). The cells were incubated at 37 °C in a humidified atmosphere containing 5% CO2. Upon reaching 80–90% confluency, the cells were harvested with 0.25% trypsin in 1 mM EDTA (Life Technologies, Warsaw, Poland) and transferred to 96-well microplates at 2 × 10^4 cells/well. After overnight incubation of cells at 37 °C in a humidified atmosphere containing 5% CO2, the culture medium was removed and replaced with a freshly prepared solution of compounds in the culture medium or medium itself as the control group. The stock solutions of each compound were prepared in DMSO at a concentration of 100 mM and were diluted with the growth medium supplemented with 10% FBS to ensure drug dissolution to obtain concentrations ranging from 0.1 to 1000 µM. Cytotoxicity was evaluated using the MTT assay. After incubation with the compounds, the cells were treated with MTT dye solution (5 mg/ml) for 2 h and lysed with a solvent solution containing DMF (45 ml), sodium dodecylsulfate (13.5 g), and distilled water (55 ml). After overnight incubation at 37 °C, optical density at 550 nm, with a reference wavelength of 670 nm, was measured in an ELISA reader (VarioskanLux, Thermo Scientific, Waltham, MA, USA). All determinations were carried out in triplicate. Results were calculated as the percentage of control group viability. The IC50 values of the compounds were calculated in an Excel add-in ED50V10.

[2] = tested on: ct-DNA; assay: Circular dichroism (CD) measurements of ct-DNA; assay type: binding, calf; settings: increasing concentration of conjugate, r = 0.1–0.5, cacodylate buffer pH 7.0
Description: The measurements were performed by adding aliquots of DMSO stock solution of the tested compounds to the buffer solution (pH 7.0, 20 mM, cacodylate buffer, DMSO content of the final solutions = 0.22–1.30%). Changes in the CD spectrum of ct-DNA upon the addition of compound were measured at different molar ratios r = [compound]/[ct-DNA]. CD spectra were recorded on a JASCO J-815 CD spectrometer with a JASCO PFD-425S Peltier thermostated cell holder (JASCO, Tokyo, Japan) by using a square quartz cuvette of path length 0.5 cm (0.5 ml) in the 230–400 nm region. The CD profiles reported were an average of three successive scans with a scan time of 200 nm per minute and an appropriately corrected baseline. Temperature was maintained at 20 °C during the experiment.

[3] = tested on: ct-DNA; assay: Melting temperature (Tm) measurements of ct-DNA; assay type: binding, calf; settings: r = [compound]/[ct-DNA] = 0.3, cacodylate buffer pH 7.0; Tm of free ct-DNA 74 °C; error ±0.5 °C
Description: The measurements were carried out by adding aliquots of DMSO stock solution of the tested compounds to the buffer solution (pH 7.0, 20 mM, cacodylate buffer, DMSO content of the final solution = 0.33–0.39%). Tm curves were collected at r = 0.3 (r = [compound]/[ct-DNA]) to assure the dominant binding mode. Thermal melting curves were plotted considering the absorption change at 260 nm as a function of temperature using a GBC Cintra10 UV–VIS spectrometer (Dandenong, Australia) equipped with a GBC Thermocell Peltier Power Supply (Dandenong, Australia) with the use of a 1-cm-path-length cell. The absorbance of the samples was monitored at 260 nm from 35 to 95 °C with a heating rate of 1 °C/min. Tm values are the midpoints or the transition curves determined from the maximum of the first derivative. ΔTm values were calculated by subtracting the Tm of the free nucleic acid from the Tm of the sample. All ΔTm values reported in the study were measured in triplicate. The error in ΔTm was ±0.5 °C.

[4] = tested on: ct-DNA; assay: UV–vis spectra titration with ct-DNA (binding constant Kb); set-up: species or system calf; settings: for Kb compared to that of mitonafide: mitonafide Kb 2.54 × 10^5
Description: The measurements were performed by adding aliquots of DMSO stock solution of the tested compounds to the buffer solution (pH 7.4, 20 mM, 50 mM NaCl, Tris–HCl buffer, DMSO content of the final solutions = 0.54–0.65%) to the final concentration 10 µM. The tested compounds were incubated for 5 min, with increasing concentrations ranging from 0 to 15 µM of ct-DNA at 37 °C. Then, the UV–vis absorption spectra between 300 and 500 nm were recorded using a GBC Cintra10 UV–VIS spectrometer equipped with a GBC Thermocell Peltier Power Supply with the use of a 1-cm-path-length cell. The binding constant was calculated according to the following equation[70]: A0/A−A0= εG/εH−G−εG+ εG/εH−G−εG × 1/Kb[DNA] where Kb is the binding constant; A0 and a are absorbances of the free tested compound and the apparent one; εG and εH–G are their coefficient, respectively; [DNA] is the concentration of DNA in base pairs. The slope to intercept ratio of the plot between A0/A − A0 and 1/[DNA] yielded the binding constant.

[5] = tested on: HepG2; set-up: method as in PMID 31776032; settings: footnote of Table 2, reference compounds; cited from earlier work
[6] = target: human topoisomerase IIα; set-up: method as in PMID 35562989; settings: earlier study of 4-carboranyl-1,8-naphthalimides; read-out: anti-Topo II activity IC50; cited from earlier work
[7] = tested on: ct-DNA; set-up: method as in PMID 33803403; settings: unmodified mitonafide and pinafide; cited from earlier work
[8] = tested on: HepG2 cells; set-up: method as in PMID 31776032; settings: earlier N-imide derivatives; cited from earlier work

4-[(2-[3–(1,2-Dicarba-closo-dodecaborane-1-yl)propanamido]ethyl)amino]-3-nitro-N-[2-(N-pyrrolidinyl)ethyl]-1,8-naphthalimide [Compound 14]
IC50 [1]: 8.97 ± 1.13 µM
change in the CD spectra of ct-DNA [2]: disturbed
ΔTm ct-DNA [3]: 3.33 °C
Kb compared to that of mitonafide [4]: similar

4-[(2-[3–(1,2-Dicarba-closo-dodecaborane-1-yl)propanamido]ethyl)amino]-N-[2-(dimethylamino)ethyl]-3-nitro-1,8-naphthalimide [Compound 12]
IC50 [1]: 21.7 ± 0.95 µM
change in the CD spectra of ct-DNA [2]: did not cause any appreciable change
ΔTm ct-DNA [3]: 3.33 °C
Kb compared to that of mitonafide [4]: similar

4-[(2-[3–(1,7-Dicarba-closo-dodecaborane-1-yl)propanamido]ethyl)amino]-3-nitro-N-[2-(N-pyrrolidinyl)ethyl]-1,8-naphthalimide [Compound 15]
IC50 [1]: 9.23 ± 0.35 µM
change in the CD spectra of ct-DNA [2]: disturbed
ΔTm ct-DNA [3]: 5.00 °C
Kb compared to that of mitonafide [4]: similar

4-[(2-[3–(1,7-Dicarba-closo-dodecaborane-1-yl)propanamido]ethyl)amino]-N-[2-(dimethylamino)ethyl]-3-nitro-1,8-naphthalimide [Compound 13]
IC50 [1]: 9.2 ± 0.68 µM
change in the CD spectra of ct-DNA [2]: did not cause any appreciable change
ΔTm ct-DNA [3]: 3.67 °C

4-[(2-[(1,2-Dicarba-closo-dodecaborane-1-yl)ethylamino]ethyl)amino]-3-nitro-N-[2-(N-pyrrolidinyl)ethyl]-1,8-naphthalimide [Compound 32]
IC50 [1]: 8.12 ± 0.88 µM
change in the CD spectra of ct-DNA [2]: disturbed
ΔTm ct-DNA [3]: 0.33 °C
Kb compared to that of mitonafide [4]: approximately 1.5 fold

4-[(2-[(1,2-Dicarba-closo-dodecaborane-1-yl)ethylamino]ethyl)amino]-N-[2-(dimethylamino)ethyl]-3-nitro-1,8-naphthalimide [Compound 30]
IC50 [1]: 4.51 ± 0.66 µM
change in the CD spectra of ct-DNA [2]: disturbed
ΔTm ct-DNA [3]: 3.33 °C

4-[(2-[(1,7-Dicarba-closo-dodecaborane-1-yl)ethylamino]ethyl)amino]-3-nitro-N-[2-(N-pyrrolidinyl)ethyl]-1,8-naphthalimide [Compound 33]
IC50 [1]: 20.6 ± 3.83 µM
change in the CD spectra of ct-DNA [2]: did not cause any appreciable change
ΔTm ct-DNA [3]: 0.33 °C
changes in the absorbance on addition of ct-DNA ([4]; UV–vis, 1.25–15 µM ct-DNA, 10 µM compound): changes in the absorbance were not observed

4-[(2-[(1,7-Dicarba-closo-dodecaborane-1-yl)ethylamino]ethyl)amino]-N-[2-(dimethylamino)ethyl]-3-nitro-1,8-naphthalimide [Compound 31]
IC50 [1]: 11.6 ± 0.62 µM
change in the CD spectra of ct-DNA [2]: did not cause any appreciable change
ΔTm ct-DNA [3]: 1.67 °C
bathochromic effect ([4]; UV–vis, addition of 1.25–15 µM ct-DNA to 10 µM compound): 6 nm
Kb compared to that of mitonafide [4]: similar

4-[(6-[3–(1,2-Dicarba-closo-dodecaborane-1-yl)propanamido]hexyl)amino]-3-nitro-N-[2-(N-pyrrolidinyl)ethyl]-1,8-naphthalimide [Compound 18]
IC50 [1]: 4.79 ± 0.8 µM
Kb compared to that of mitonafide [4]: approximately 1.5 fold

4-[(6-[3–(1,2-Dicarba-closo-dodecaborane-1-yl)propanamido]hexyl)amino]-N-[2-(dimethylamino)ethyl]-3-nitro-1,8-naphthalimide [Compound 16]
IC50 [1]: 5.12 ± 0.87 µM
Kb compared to that of mitonafide [4]: approximately 1.5 fold

4-[(6-[3–(1,7-Dicarba-closo-dodecaborane-1-yl)propanamido]hexyl)amino]-3-nitro-N-[2-(N-pyrrolidinyl)ethyl]-1,8-naphthalimide [Compound 19]
IC50 [1]: 5.86 ± 0.56 µM

4-[(6-[3–(1,7-Dicarba-closo-dodecaborane-1-yl)propanamido]hexyl)amino]-N-[2-(dimethylamino)ethyl]-3-nitro-1,8-naphthalimide [Compound 17]
IC50 [1]: 8.03 ± 1.25 µM
Kb compared to that of mitonafide [4]: similar

CN(C)CCN1C(=O)c2cccc3cc([N+](=O)[O-])cc(c23)C1=O [mitonafide]
IC50 [5]: < 1 µM
IC50 [6]: 5.13 µM
ΔTm [7]: 5.17 °C

O=C1c2cccc3cc([N+](=O)[O-])cc(c23)C(=O)N1CCN1CCCC1 [pinafide]
IC50 [5]: 1.23 µM
ΔTm [7]: 6.50 °C

N-[2-(N-pyrrolidinyl)ethyl]-4-[(2–(3–(1,2-dicarba-closo-dodecaborane-1-yl)propanamido)ethyl)amino]-1,8-naphthalimide
IC50 [6]: 2.81 µM

N-[2-(dimethylamino)ethyl]-4-{1-[3-(1,2-dicarba-closo-dodecaborane-1-yl)propyl]-1H-1,2,3-triazol-4-yl}-1,8-naphthalimide
IC50 [6]: 0.58 µM

N-[2–(3,3′-commo-bis(1,2-dicarba-3-cobalta(III)-closo-dodecaborate-1-yl)ethyl)]-1,8-naphthalimide
intracellular ROS production (fluorescence intensity) [8]: approximately twofold increase

N-[3–(1,2-dicarba-closo-dodecaborane-1-yl)propyl]-1,8-naphthalimide
intracellular ROS production (fluorescence intensity) [8]: approximately twofold increase

N-{[2–(3,3′-commo-bis(1,2-dicarba-3-cobalta(III)-closo-dodecaborate-1-yl)ethyl]-1′-aminoethyl)}-1,8-naphthalimide]
intracellular ROS production (fluorescence intensity) [8]: approximately twofold increase
